Measurements from PubChem BioAssay (NCI).
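Here, GI50 denotes the concentration required for 50% inhibition of growth. Definition used: TGI = concentration required for complete inhibition of growth.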

Legend:
Assay in all cases: NCI tumour cell line growth inhibition, 384-well format
786-0 renal = system: 786-0 renal
A498 renal = system: A498 renal
A549 NSCLC = system: A549 NSCLC
ACHN renal = system: ACHN renal
BT-549 breast = system: BT-549 breast
CAKI-1 renal = system: CAKI-1 renal
CCRF-CEM leukemia = system: CCRF-CEM leukemia
COLO 205 colon = system: COLO 205 colon
DU-145 prostate = system: DU-145 prostate
EKVX NSCLC = system: EKVX NSCLC
HCC-2998 colon = system: HCC-2998 colon
HCT-15 colon = system: HCT-15 colon
HL-60(TB) leukemia = system: HL-60(TB) leukemia
HOP-62 NSCLC = system: HOP-62 NSCLC
HOP-92 NSCLC = system: HOP-92 NSCLC
HS 578T breast = system: HS 578T breast
HT29 colon = system: HT29 colon
IGROV1 ovarian = system: IGROV1 ovarian
K-562 leukemia = system: K-562 leukemia
KM12 colon = system: KM12 colon
LOX IMVI melanoma = system: LOX IMVI melanoma
M14 melanoma = system: M14 melanoma
MALME-3M melanoma = system: MALME-3M melanoma
MCF7 breast = system: MCF7 breast
MDA-MB-231 breast = system: MDA-MB-231 breast
MDA-MB-435 melanoma = system: MDA-MB-435 melanoma
MDA-MB-468 breast = system: MDA-MB-468 breast
MOLT-4 leukemia = system: MOLT-4 leukemia
NCI-H226 lung = system: NCI-H226 lung
NCI-H23 lung = system: NCI-H23 lung
NCI-H322M lung = system: NCI-H322M lung
NCI-H460 NSCLC = system: NCI-H460 NSCLC
NCI-H522 lung = system: NCI-H522 lung
NCI/ADR-RES ovarian = system: NCI/ADR-RES ovarian
OVCAR-3 ovarian = system: OVCAR-3 ovarian
OVCAR-4 ovarian = system: OVCAR-4 ovarian
OVCAR-5 ovarian = system: OVCAR-5 ovarian
OVCAR-8 ovarian = system: OVCAR-8 ovarian
PC-3 prostate = system: PC-3 prostate
RPMI-8226 leukemia = system: RPMI-8226 leukemia
RXF 393 renal = system: RXF 393 renal
SF-268 CNS = system: SF-268 CNS
SF-295 CNS = system: SF-295 CNS
SF-539 CNS = system: SF-539 CNS
SK-MEL-28 melanoma = system: SK-MEL-28 melanoma
SK-MEL-5 melanoma = system: SK-MEL-5 melanoma
SK-OV-3 ovarian = system: SK-OV-3 ovarian
SN12C renal = system: SN12C renal
SNB-19 CNS = system: SNB-19 CNS
SNB-75 CNS = system: SNB-75 CNS
SR leukemia = system: SR leukemia
SW-620 colon = system: SW-620 colon
T-47D breast = system: T-47D breast
TK-10 renal = system: TK-10 renal
UACC-257 melanoma = system: UACC-257 melanoma
UACC-62 melanoma = system: UACC-62 melanoma
UO-31 renal = system: UO-31 renal

C[C@H]1COCCN1c1nc(-c2cnc(N)cc2C(F)F)nc(N2CCOCC2)n1
GI50 ([…]-0 renal): 385 nM
TGI (786-0 renal): 6130 nM
GI50 (A498 renal): 49.3 nM
TGI (A498 renal): 447 nM
GI50 (A549 NSCLC): 221 nM
TGI (A549 NSCLC): 2750 nM
GI50 (ACHN renal): 247 nM
TGI (ACHN renal): 3830 nM
GI50 (BT-549 breast): 175 nM
TGI (BT-549 breast): 758 nM
GI50 (CAKI-1 renal): 196 nM
TGI (CAKI-1 renal): 3960 nM
GI50 (CCRF-CEM leukemia): 224 nM
TGI (CCRF-CEM leukemia): 1680 nM
GI50 (COLO 205 colon): 201 nM
TGI (COLO 205 colon): 11800 nM
GI50 (DU-145 prostate): 308 nM
TGI (DU-145 prostate): > 100000 nM
GI50 (EKVX NSCLC): 189 nM
TGI (EKVX NSCLC): 780 nM
GI50 (HCC-2998 colon): 423 nM
TGI (HCC-2998 colon): 12400 nM
GI50 (HCT-15 colon): 181 nM
TGI (HCT-15 colon): 30900 nM
GI50 (HL-60(TB) leukemia): 289 nM
TGI (HL-60(TB) leukemia): 2820 nM
GI50 (HOP-62 NSCLC): 261 nM
TGI (HOP-62 NSCLC): 4410 nM
GI50 (HOP-92 NSCLC): 102 nM
TGI (HOP-92 NSCLC): 462 nM
GI50 (HS 578T breast): 52.8 nM
TGI (HS 578T breast): 273 nM
GI50 (HT29 colon): 263 nM
TGI (HT29 colon): 55300 nM
GI50 (IGROV1 ovarian): 53.8 nM
TGI (IGROV1 ovarian): 265 nM
GI50 (K-562 leukemia): 548 nM
TGI (K-562 leukemia): > 100000 nM
GI50 (KM12 colon): 294 nM
TGI (KM12 colon): 12000 nM
GI50 (LOX IMVI melanoma): 242 nM
TGI (LOX IMVI melanoma): 1170 nM
GI50 (M14 melanoma): 191 nM
TGI (M14 melanoma): 27400 nM
GI50 (MALME-3M melanoma): 50.7 nM
TGI (MALME-3M melanoma): 309 nM
GI50 (MCF7 breast): 45.3 nM
TGI (MCF7 breast): 3080 nM
GI50 (MDA-MB-231 breast): 248 nM
TGI (MDA-MB-231 breast): > 100000 nM
GI50 (MDA-MB-435 melanoma): 275 nM
TGI (MDA-MB-435 melanoma): 2520 nM
GI50 (MDA-MB-468 breast): 172 nM
TGI (MDA-MB-468 breast): 487 nM
GI50 (MOLT-4 leukemia): 103 nM
TGI (MOLT-4 leukemia): 406 nM
GI50 (NCI-H226 lung): 159 nM
TGI (NCI-H226 lung): 649 nM
GI50 (NCI-H23 lung): 184 nM
TGI (NCI-H23 lung): 30700 nM
GI50 (NCI-H322M lung): 203 nM
TGI (NCI-H322M lung): 10900 nM
GI50 (NCI-H460 NSCLC): 68.7 nM
TGI (NCI-H460 NSCLC): > 100000 nM
GI50 (NCI-H522 lung): 206 nM
TGI (NCI-H522 lung): 1630 nM
GI50 (NCI/ADR-RES ovarian): 399 nM
TGI (NCI/ADR-RES ovarian): > 100000 nM
GI50 (OVCAR-3 ovarian): 270 nM
TGI (OVCAR-3 ovarian): 2930 nM
GI50 (OVCAR-4 ovarian): 115 nM
TGI (OVCAR-4 ovarian): 585 nM
GI50 (OVCAR-5 ovarian): 163 nM
TGI (OVCAR-5 ovarian): 1170 nM
GI50 (OVCAR-8 ovarian): 307 nM
TGI (OVCAR-8 ovarian): > 100000 nM
GI50 (PC-3 prostate): 166 nM
TGI (PC-3 prostate): 10100 nM
GI50 (RPMI-8226 leukemia): 30.7 nM
TGI (RPMI-8226 leukemia): 155 nM
GI50 (RXF 393 renal): 315 nM
TGI (RXF 393 renal): 2880 nM
GI50 (SF-268 CNS): 311 nM
TGI (SF-268 CNS): 36100 nM
GI50 (SF-295 CNS): 106 nM
TGI (SF-295 CNS): 463 nM
GI50 (SF-539 CNS): 323 nM
TGI (SF-539 CNS): 5880 nM
GI50 (SK-MEL-28 melanoma): 146 nM
TGI (SK-MEL-28 melanoma): 890 nM
GI50 (SK-MEL-5 melanoma): 143 nM
TGI (SK-MEL-5 melanoma): 417 nM
GI50 (SK-OV-3 ovarian): 129 nM
TGI (SK-OV-3 ovarian): 441 nM
GI50 (SN12C renal): 138 nM
TGI (SN12C renal): 772 nM
GI50 (SNB-19 CNS): 2330 nM
TGI (SNB-19 CNS): > 100000 nM
GI50 (SNB-75 CNS): 117 nM
TGI (SNB-75 CNS): 810 nM
GI50 (SR leukemia): 125 nM
TGI (SR leukemia): 370 nM
GI50 (SW-620 colon): 554 nM
TGI (SW-620 colon): > 100000 nM
GI50 (T-47D breast): 19.7 nM
TGI (T-47D breast): 106 nM
GI50 (TK-10 renal): 254 nM
TGI (TK-10 renal): 2010 nM
GI50 (UACC-257 melanoma): 389 nM
TGI (UACC-257 melanoma): 3210 nM
GI50 (UACC-62 melanoma): 227 nM
TGI (UACC-62 melanoma): 1490 nM
GI50 (UO-31 renal): 321 nM
TGI (UO-31 renal): > 100000 nM
